Measurements as given in patent US11760984B2, “CRISPR protein inhibitors” (THE BROAD INSTITUTE, INC., priority 2017, dated 2023).
“Also recorded” adds a separate entry of the source.

Experiments:
Type in all cases: cell-based
SpCas9 = SpCas9 (Streptococcus pyogenes serotype M1, UniProt Q99ZW2); test: mKate2 expression (knockdown) assay; details: for activity in mKate2 assay: HEK293 cells, 1.5-5 μM, 24 h
Procedure: mKate2 expression assay. Approximately 8,000 cells/well were plated in a 96-well format 24 h before transiently transfected with 100 ng of either CgRNA (Addgene Plasmid #64955) or T1gRNA (Addgene Plasmid #62717) plasmids using lipofectamine 2000 (Life Technologies). Transfected cells were allowed to grow in the indicated amount of compound or DMSO for 24 h. Cells were then fixed using 4% paraformaldehyde and imaged with the HCS NuclearMask™ Blue Stain (Life Technologies) as the nuclear counter-staining agent. Imaging was performed with an IXM 137204 ImageXpress Automated High Content Microscope (Molecular Devices) at 20× magnification under two excitation channels (blue and red) with 9 acquiring sites per well. Images were analyzed in the MetaXpress software to determine the % mKate2 positive cells and the % NHEJ was calculated following a reported protocol and plotted using GraphPad Prism 6. The Z′-value was calculated following the formula: […]

dCas9 = test: dCas9-based transcriptional activation of HBG1 gene in HEK293FT cells (RT-qPCR); details: for inhibition of HBG1 transcriptional activation: HEK293FT cells, 48 hours
Procedure: Transcription activation experiments and quantitative RT-PCR analyses. For transcription activation experiments 250,000 cells/well were plated in a 12 well plate. The cells were transiently transfected with a 1:1:1 mass ratio of the dCas9 plasmid, MS2-P65-HSF1 effector plasmid and the sgRNA plasmid targeting the HBG1 gene or an RFP control plasmid. A total of 1.6 μg plasmid DNA was transfected using Lipofectamine 2000 (Life Technologies) according to manufacturer's protocol. Immediately after transfection, the cells were treated with an appropriate dose of the small molecule inhibitors for 48 hours following which the cells were harvested and RNA was extracted using the EZNA Total RNA kit I (Omega) as per manufacturer's instructions. 1 μg total cellular RNA was used to perform reverse transcription using the High-Capacity cDNA Reverse Transcription Kit (Applied Biosystems) or the qScript cDNA Synthesis Kit (QuantaBio). qPCR reactions were performed to quantify RNA expression using the TaqMan probes (Life Technologies, HBG1/HBG2: Hs00361131_g1 and ACTB: Hs01060665_g1) and TaqMan Fast Advanced Master Mix (Life Technologies) in 5 μL multiplexed reactions and 384-well format using the LightCycler 480 Instrument II (Roche). For each sample, six technical replicates were performed. Data were analyzed using the LightCycler 480 software (Roche) by the ΔΔCt method: Ct values for the gene of interest (HBG1) were normalized to Ct values for the housekeeping gene (ACTB) and fold-changes in the expression level of the gene of interest were normalized to RFP-transfected control. The data are reported as mean±S.E.M. for technical replicates.
For transcription activation experiments 250,000 cells/well were plated in a 12 well plate. […] Data were analyzed using the LightCycler 480 software (Roche) by the ΔΔCt method: Ct values for the gene of interest (HBG1) were normalized to Ct values for the housekeeping gene (ACTB) and fold-changes in the expression level of the gene of interest were normalized to RFP-transfected control. […]

HEK293T cells = test: Cell viability assay (ATP content), HEK293T cells; details: up to 20 μM, 24 h
Procedure: FIG. 23—Cell viability assay (ATP content) of […] cells in the presence of compounds. Measurement of ATP content of HEK293T cells upon incubating with BRD7087 and BRD5779 (5-20 μM) for 24 h. Error bars represent ±S.D. from technical replicates (n=3).
FIG. 67. Cell viability assay (ATP content) of HEK293T cells in the presence of compounds. Measurement of ATP content of HEK293T cells upon incubating with BRD7087 and BRD5779 (5-20 μM) for 24 h. Error bars represent ±S.D. from technical replicates (n=3).

Chain of SpCas9 (Q99ZW2 whole entry): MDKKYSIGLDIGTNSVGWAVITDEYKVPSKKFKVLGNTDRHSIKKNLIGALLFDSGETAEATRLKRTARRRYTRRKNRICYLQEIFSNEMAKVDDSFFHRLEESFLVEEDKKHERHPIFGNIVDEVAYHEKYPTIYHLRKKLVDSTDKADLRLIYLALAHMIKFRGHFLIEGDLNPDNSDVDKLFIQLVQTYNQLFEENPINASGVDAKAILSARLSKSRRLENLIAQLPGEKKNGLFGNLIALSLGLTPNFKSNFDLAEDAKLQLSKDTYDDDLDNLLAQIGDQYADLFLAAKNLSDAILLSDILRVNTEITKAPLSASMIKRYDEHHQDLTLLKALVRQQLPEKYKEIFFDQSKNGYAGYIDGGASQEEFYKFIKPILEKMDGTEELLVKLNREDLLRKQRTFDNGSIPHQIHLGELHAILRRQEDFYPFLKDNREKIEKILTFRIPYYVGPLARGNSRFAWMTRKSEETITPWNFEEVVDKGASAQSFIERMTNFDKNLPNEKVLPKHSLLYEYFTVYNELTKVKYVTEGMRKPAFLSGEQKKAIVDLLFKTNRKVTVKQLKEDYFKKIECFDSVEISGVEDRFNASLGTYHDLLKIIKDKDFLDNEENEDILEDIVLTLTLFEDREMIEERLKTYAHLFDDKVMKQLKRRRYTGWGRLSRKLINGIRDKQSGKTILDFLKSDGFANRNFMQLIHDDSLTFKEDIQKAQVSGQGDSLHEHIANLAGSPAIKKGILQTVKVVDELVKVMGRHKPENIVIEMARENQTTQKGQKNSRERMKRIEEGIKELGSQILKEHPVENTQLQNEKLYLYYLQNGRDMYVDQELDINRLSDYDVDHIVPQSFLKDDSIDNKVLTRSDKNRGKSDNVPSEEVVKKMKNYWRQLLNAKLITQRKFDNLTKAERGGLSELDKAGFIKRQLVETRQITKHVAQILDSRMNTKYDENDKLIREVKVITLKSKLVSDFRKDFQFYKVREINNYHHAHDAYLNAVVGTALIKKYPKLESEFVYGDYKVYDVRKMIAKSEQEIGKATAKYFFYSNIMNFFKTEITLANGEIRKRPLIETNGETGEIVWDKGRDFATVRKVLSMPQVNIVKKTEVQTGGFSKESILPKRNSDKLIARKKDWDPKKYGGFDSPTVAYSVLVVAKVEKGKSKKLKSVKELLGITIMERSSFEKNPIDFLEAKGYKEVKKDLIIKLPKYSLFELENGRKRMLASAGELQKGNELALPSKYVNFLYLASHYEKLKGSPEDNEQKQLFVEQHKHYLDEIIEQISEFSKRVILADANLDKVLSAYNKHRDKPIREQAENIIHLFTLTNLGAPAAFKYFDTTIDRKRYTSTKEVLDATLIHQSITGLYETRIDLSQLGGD

| Compound | activity in mKate2 assay (SpCas9) | inhibition of HBG1 transcriptional activation (dCas9) | cytotoxicity: cellular ATP-levels (HEK293T cells) | IC50 (SpCas9) | inhibition of transcriptional activation (dCas9; 10 μM, HBG1 gene) |
| --- | --- | --- | --- | --- | --- |
| COc1ccc(-c2ccc3c(c2)[C@H]2[C@H](CCN2Cc2ccncc2)[C@@H](CO)N3)cc1 [BRD5779, ((3aR,4S,9bR)-8-(4-Methoxyphenyl)-1-(pyridin-4-ylmethyl)-2,3,3a,4,5,9b-hexahydro-1H-pyrrolo[3,2-c]quinolin-4-yl)methanol] | Dose-dependent recovery of the mKate2 signal | dose-dependent inhibition | did not significantly alter the cellular ATP-levels |  |  |
| OC[C@H]1Nc2ccc(-c3cccc(F)c3)cc2[C@H]2[C@@H]1CCN2Cc1ccncc1 [BRD7087, ((3aR,4S,9bR)-8-(3-Fluorophenyl)-1-(pyridin-4-ylmethyl)-2,3,3a,4,5,9b-hexahydro-1H-pyrrolo[3,2-c]quinolin-4-yl)methanol] | Dose-dependent recovery of the mKate2 signal; also recorded: more active than BRD5779 | dose-dependent inhibition | did not significantly alter the cellular ATP-levels | ~5 µM | > 60% |
